Values after ≈ are worked out from the molar mass of the structure shown. Where two headings read alike, the source gives them in different places.
Columns and labels:
[1] = test system: Aspergillus fumigatus (ATCC13073); experiment: Broth dilution anti-fungal susceptibility of filamentous fungi (NCCLS M38-A), MIC; assay type: cell-based; conditions: Table 1, MICs read at 80% inhibition, 35° C., 48 hours, tested 0.12 to 64 μg/ml
Protocol: (§1) The anti-fungal activity of the compounds according to the invention were evaluated against Candida albicans (ATCC90028), Cryptococcus neoformans (ATCC32045), and Aspergillus fumigatus (ATCC13073) according to NCCLS guidelines (NCCLS reference method for broth dilution anti-fungal susceptibility testing of yeasts; approved standard-second edition, M27-A2, National Committee for Clinical Laboratory Standards, Villanova, Pa. 2003; and NCCLS reference method for broth dilution anti-fungal susceptibility testing of filamentous fungi; approved standard, M38-A, National Committee for Clinical Laboratory Standards, Villanova, Pa. 2002).
(§2) The medium required for the evaluation of anti-fungal activity was prepared as follows. RPMI 1640 broth+MOPS, pH adjusted and filter sterilized. Sabouraud Dextrose Agar (SDA) plates were used for growing fungi.
(§3) All test or candidate compounds were prepared as 5 mg/ml stock solutions in DMSO and further diluted according to the NCCLS guidelines with sterile water or appropriate diluent. A working stock of 256 μg/ml was used to prepare 1:2 serial dilutions in 96-well plates.
(§4) The inoculums of fungi were prepared by making a direct sterile water suspension of colonies/spores from SDA plates. 0.1% Tween 20 was used for A. fumigatus for better dispersal of spores in suspension. For C. albicans and C. neoformans overnight cultures were used. A. fumigatus required longer incubation. Each fungal suspension was adjusted to read between 70 and 75% transmittance at 530 nm (0.5 McFarland Standard). These suspensions were further diluted 1/1000 in appropriate broth for inoculating the 96-well plates.
(§5) All plates were incubated at 35° C. for the following times: 18 hours to 24 hours for C. albicans, 48 hours for A. fumigatus, and 48 to 72 hours for C. neoformans.

brine shrimp = assay type: in vivo; conditions: for % BL (brine shrimp lethality): at 100 μg/ml
Protocol: The general in vitro toxicity of these compounds can be tested using the Brine Shrimp Lethality assay, as described in Mclaughlin, J. L. in Methods in Plant Biochemistry. Ed. K. Hostettmann, Academic Press, London, 1991; Vol. 6, pp. 1-32. Typically, candidate compounds are diluted in seawater to a suitable concentration and added to second instar larvae of Artemia salina. After a suitable period of time, for example 24 hours, the survivors are counted. In vitro acute toxicity testing of a compound of Formula I can also be performed using mammalian cell lines (see, for example, Ekwall, B., Ann. N.Y. Acad. Sci., (1983) 407:64-77). Selection of an appropriate cell line is dependent on the potential application of the candidate compound and can be readily determined by one skilled in the art.
To test the general toxicity of these compounds, Brine Shrimp Lethality assay was carried out according to Mclaughlin, J. L. in Methods in Plant Biochemistry. Ed. K. Hostettmann, Academic Press, London, 1991; Vol. 6, pp. 1-32. The compounds were tested at 100 μg/ml.

[2] = test system: Candida albicans (ATCC90028); experiment: Broth dilution anti-fungal susceptibility (NCCLS M27-A2), MIC; assay type: cell-based; conditions: for MIC: Candida albicans
Protocol: as §1, §2, §3, §4, §5

[3] = test system: Cryptococcus neoformans (ATCC32045); experiment: as above; assay type: cell-based; conditions: Table 1, MICs read at 80% inhibition, 35° C., 48 to 72 hours, tested 0.12 to 64 μg/ml
Protocol: as §1, §2, §3, §4, §5

Candida krusei ATCC6258 = experiment: Broth dilution anti-fungal susceptibility, MIC (as in Example 24); assay type: cell-based; conditions: for MIC: Pichia kudriavzevii, ATCC6258, read-out: MIC C. krusei
[4] = ATCC90028, Table 1, MICs read at 80% inhibition, 35° C., 18 to 24 hours, tested 0.12 to 64 μg/ml
[5] = Table 3 (Example 26), MICs read at 80% inhibition, 0.12 to 64 μg/ml
[6] = comparison in words, from Table 3
[7] = ATCC90028, Table 3 (Example 26, additional testing), MICs read at 80% inhibition, 0.12 to 64 μg/ml, read-out: MIC C. albicans

| MIC [1] [µg/mL] | MIC [2, 4] [µg/mL] | MIC [3] [µg/mL] | MIC C. krusei (Candida krusei ATCC6258; [5]) [µg/mL] | MIC C. albicans ([2]; Table 3 (Example 26, additional testing), MICs read at 80% inhibition, 0.12 to 64 μg/ml) [µg/mL] | Compound | % BL (brine shrimp lethality) (brine shrimp) [%] | MIC (Candida krusei ATCC6258; [5]) [µg/mL] | inhibitory activity against C. krusei compared to chlorogenic acid (Candida krusei ATCC6258; [6]) | toxicity on brine shrimp compared to chlorogenic acid (brine shrimp; comparison in words, from Table 2) | MIC [2, 7] [µg/mL] | inhibitory activity against C. albicans compared to chlorogenic acid [2, 6] |
| --- | --- | --- | --- | --- | --- | --- | --- | --- | --- | --- | --- |
| > 64 | > 64 | > 64 |  |  | CCCCCCCCOc1ccc(NC(=O)C(CCCNC(=O)OC(C)(C)C)NC(=O)C2(O)CC(O)C(O)C(OC(=O)/C=C/c3ccc(O)cc3)C2)cc1 (centres unmarked) [Compound 18] | 31.6 |  |  |  |  |  |
| 32 (≈ 48.8 µM) | 8 (≈ 12.2 µM) | 4 (≈ 6.1 µM) |  |  | CCCCCCCCOc1ccc(NC(=O)C(CCCN)NC(=O)C2(O)CC(O)C(O)C(OC(=O)/C=C/c3ccc(O)cc3)C2)cc1 (centres unmarked) [Compound 19] | 100 |  |  |  |  |  |
| > 64 | > 64 | 4 (≈ 5.08 µM) |  |  | CCCCCCCCOc1ccc(NC(=O)C(CCCNC(=O)OC(C)(C)C)NC(=O)C2(O)CC(O)C(O)C(OC(=O)C(N)CCc3ccc(O)cc3)C2)cc1 (centres unmarked) [Compound 22] | 36.8 |  |  |  |  |  |
| 64 (≈ 95 µM) | 16 (≈ 23.7 µM) | 8 (≈ 11.9 µM) |  |  | CCCCCCCCOc1ccc(NC(=O)C(CCCN)NC(=O)C2(O)CC(O)C(O)C(OC(=O)CCc3ccc(O)c(O)c3)C2)cc1 (centres unmarked) [Compound 16] | 10.5 |  |  |  |  |  |
| > 64 | 64 (≈ 93.2 µM) | 2 (≈ 2.91 µM) |  |  | CCCCCCCCOc1ccc(NC(=O)C(CCCN)NC(=O)C2(O)CC(O)C(O)C(OC(=O)C(N)CCc3ccc(O)cc3)C2)cc1 (centres unmarked) [Compound 23] | 73.7 |  |  |  |  |  |
| > 64 | > 64 | > 64 |  |  | CCCCCCCCOc1ccc(NC(=O)C(CCCNC(=O)OC(C)(C)C)NC(=O)C2(O)CC(OC(=O)/C=C/c3ccc(O)cc3)C3OC(C)(C)OC3C2)cc1 (centres unmarked) [Compound 17] | 0.0 |  |  |  |  |  |
| > 64 | > 64 | > 64 |  |  | CCCCCCCCOc1ccc(NC(=O)C(CCCNC(=O)OC(C)(C)C)NC(=O)C2(O)CC(OC(=O)C(CCc3ccc(O)cc3)NC(=O)OCC3c4ccccc4-c4ccccc43)C3OC(C)(C)OC3C2)cc1 (centres unmarked) [Compound 20] | 10.5 |  |  |  |  |  |
| > 64 | 0.25 (≈ 0.816 µM) | 0.5 (≈ 1.63 µM) |  |  | OC(Cn1cncn1)(Cn1cncn1)c1ccc(F)cc1F [Fluconazole, reference compound] |  |  |  |  |  |  |
| > 64 | > 64 | > 64 |  |  | CCCCCCCCOc1ccc(NC(=O)C(CCCNC(=O)OC(C)(C)C)NC(=O)C2(O)CC(OC(=O)C(N)CCc3ccc(O)cc3)C3OC(C)(C)OC3C2)cc1 (centres unmarked) [Compound 21] | 47.7 |  |  |  |  |  |

The next lines start with the compound.

| Compound | MIC [1] [µg/mL] | MIC [2, 4] [µg/mL] | MIC [3] [µg/mL] | MIC C. krusei (Candida krusei ATCC6258; [5]) [µg/mL] | MIC C. albicans ([2]; Table 3 (Example 26, additional testing), MICs read at 80% inhibition, 0.12 to 64 μg/ml) [µg/mL] | % BL (brine shrimp lethality) (brine shrimp) [%] | MIC (Candida krusei ATCC6258; [5]) [µg/mL] | inhibitory activity against C. krusei compared to chlorogenic acid (Candida krusei ATCC6258; [6]) | toxicity on brine shrimp compared to chlorogenic acid (brine shrimp; comparison in words, from Table 2) | MIC [2, 7] [µg/mL] | inhibitory activity against C. albicans compared to chlorogenic acid [2, 6] |
| --- | --- | --- | --- | --- | --- | --- | --- | --- | --- | --- | --- |
| CCCCCCCCOc1ccc(NC(=O)C(CC(=O)OC(C)(C)C)NC(=O)C2(O)CC(OC(=O)/C=C/c3ccc(O)c(O)c3)C3OC(C)(C)OC3C2)cc1 (centres unmarked) [Compound 5] | > 64 | > 64 | 2 (≈ 2.6 µM) |  |  | 56.2 |  |  |  |  |  |
| CCCCCCCCOc1ccc(NC(=O)C(COC(C)(C)C)NC(=O)C2(O)CC(OC(=O)/C=C/c3ccc(O)c(O)c3)C3OC(C)(C)OC3C2)cc1 (centres unmarked) [Compound 3] | > 64 | 32 (≈ 43.2 µM) | 2 (≈ 2.7 µM) |  |  | 31.3 |  |  |  |  |  |
| CCCCCCCCOc1ccc(NC(=O)C(CCCNC(=O)OC(C)(C)C)NC(=O)C2(O)CC(O)C(O)C(OC(=O)/C=C/c3ccc(O)c(O)c3)C2)cc1 (centres unmarked) [Compound 10] | > 64 | 2 (≈ 2.59 µM) | 1 (≈ 1.3 µM) |  |  | 25.0 |  |  |  |  |  |
| CCCCCCCCOc1ccc(NC(=O)C(NC(=O)C2(O)CC(O)C(O)C(OC(=O)/C=C/c3ccc(O)c(O)c3)C2)C(C)O)cc1 (centres unmarked) [Compound 12] | > 64 | 8 (≈ 12.1 µM) | 2 (≈ 3.04 µM) |  |  | 12.5 | 2 (≈ 3.04 µM) | more potent inhibitory activity | less toxicity | 4 (≈ 6.07 µM) | more potent inhibitory activity |
| CCCCCCCCOc1ccc(NC(=O)C(CC(=O)O)NC(=O)C2(O)CC(O)C(O)C(OC(=O)/C=C/c3ccc(O)c(O)c3)C2)cc1 (centres unmarked) [Compound 13] | > 64 | 64 (≈ 95.1 µM) | 16 (≈ 23.8 µM) |  |  | 6.3 |  |  |  |  |  |
| C[C@@H]1[C@H](O)[C@@H](C)/C=C/C=C/C=C/C=C/C=C/C=C/C=C/[C@H](O[C@@H]2O[C@H](C)[C@@H](O)[C@H](N)[C@@H]2O)C[C@@H]2O[C@](O)(C[C@@H](O)C[C@@H](O)[C@H](O)CC[C@@H](O)C[C@@H](O)CC(=O)O[C@H]1C)C[C@H](O)[C@H]2C(=O)O [Amphotericin B, reference compound] |  |  |  | 1 (≈ 1.08 µM) | 0.5 (≈ 0.541 µM) |  |  |  |  |  |  |
| O=C(/C=C/c1ccc(O)c(O)c1)O[C@@H]1C[C@](O)(C(=O)O)C[C@@H](O)[C@H]1O [Chlorogenic acid] |  |  |  |  |  | 100 | > 64 |  |  | > 64 |  |
| CCCCCCCCOc1ccc(NC(=O)C2(O)CC(O)C(O)C(OC(=O)/C=C/c3ccc(O)c(O)c3)C2)cc1 (centres unmarked) [Compound 2] | > 64 | 8 (≈ 14.3 µM) | 2 (≈ 3.59 µM) |  |  | 50.0 |  |  |  |  |  |
| CCCCCCCCOc1ccc(NC(=O)C(CCCNC(=O)OC(C)(C)C)NC(=O)C2(O)CC(O)C(O)C(OC(=O)CCc3ccc(O)c(O)c3)C2)cc1 (centres unmarked) [Compound 15] | > 64 | > 64 | 4 (≈ 5.17 µM) |  |  | 21.1 |  |  |  |  |  |
| CCCCCCCCOc1ccc(NC(=O)C2(O)CC(OC(=O)/C=C/c3ccc(O)c(O)c3)C3OC(C)(C)OC3C2)cc1 (centres unmarked) [Compound 1] | > 64 | 16 (≈ 26.8 µM) | 2 (≈ 3.35 µM) |  |  | 100.0 |  |  |  |  |  |
| CCCCCCCCOc1ccc(NC(=O)C(COC(C)(C)C)NC(=O)C2(O)CC(O)C(O)C(OC(=O)/C=C/c3ccc(O)c(O)c3)C2)cc1 (centres unmarked) [Compound 7] | > 64 | 4 (≈ 5.71 µM) | 2 (≈ 2.85 µM) |  |  | 31.1 |  |  |  |  |  |
| CCCCCCCCOc1ccc(NC(=O)C(CC(=O)OC(C)(C)C)NC(=O)C2(O)CC(O)C(O)C(OC(=O)/C=C/c3ccc(O)c(O)c3)C2)cc1 (centres unmarked) [Compound 9] | > 64 | 2 (≈ 2.74 µM) | 2 (≈ 2.74 µM) |  |  | 37.5 |  |  |  |  |  |
| CCCCCCCCOc1ccc(NC(=O)C(NC(=O)C2(O)CC(OC(=O)/C=C/c3ccc(O)c(O)c3)C3OC(C)(C)OC3C2)C(C)OC(C)(C)C)cc1 (centres unmarked) [Compound 4] | > 64 | 32 (≈ 42.4 µM) | 4 (≈ 5.3 µM) |  |  | 6.2 |  |  |  |  |  |
| CCCCCCCCOc1ccc(NC(=O)C(CO)NC(=O)C2(O)CC(O)C(O)C(OC(=O)/C=C/c3ccc(O)c(O)c3)C2)cc1 (centres unmarked) [Compound 11] | > 64 | > 64 | 4 (≈ 6.2 µM) |  |  | 18.8 |  |  |  |  |  |
| CCCCCCCCOc1ccc(NC(=O)C(CCCNC(=O)OC(C)(C)C)NC(=O)C2(O)CC(OC(=O)/C=C/c3ccc(O)c(O)c3)C3OC(C)(C)OC3C2)cc1 (centres unmarked) [Compound 6] | > 64 | > 64 | 2 (≈ 2.46 µM) |  |  | 12.5 |  |  |  |  |  |
| CCCCCCCCOc1ccc(NC(=O)C(CCCN)NC(=O)C2(O)CC(O)C(O)C(OC(=O)/C=C/c3ccc(O)c(O)c3)C2)cc1 (centres unmarked) [Compound 14] | 16 (≈ 23.8 µM) | 4 (≈ 5.95 µM) | 1 (≈ 1.49 µM) |  |  | 37.5 |  |  |  |  |  |

From patent US20100311827A1, “Chlorogenic acid derivatives and their use as anti-fungal agents” (priority 2006, published 2010)
